From US20250302933A1, “ATTENUATED YET IMMUNOGENICALLY POTENTIATED TUMOR EXTRACELLULAR VESICLE COMPOSITIONS AND USES THEREOF” (KOREA INSTITUTE OF SCIENCE AND TECHNOLOGY, priority 2024, published 2025)

Key:
4T1 cells = test: Cell viability assay (CCK-8) with verteporfin; assay type: cell-based, mouse; details: 24 hours
Experimental: (§1) Cells were seeded in a 96-well plate (30096; SPL Life Sciences, Pochon, South Korea) (5,000 cells/well) and treated with various doses of verteporfin in a serum-free medium for 24 hours. Cell viability was measured using Cell counting kit-8 (CCK-8) assay (CK04; Dojindo, Kumamoto, Japan), and the absorbance was measured at 450 nm using a microplate reader (SpectraMAX 340; Molecular Devices, San Jose, CA, USA).
(§2) To determine appropriate conditions for AI-TEV production, three types of cancer cells were treated with various doses of verteporfin in a serum-free medium and cell viability was assessed. E.G7-OVA cells were a derivative of EL4 mouse lymphoma cells carrying a complete copy of chicken ovalbumin (OVA) mRNA. Mouse oral cancer 2 (MOC2) cells represented an aggressive form of mouse oral squamous cell carcinoma, while 4T1 cells were triple-negative, highly invasive malignant mouse breast cancer cells. The lowest dose of verteporfin that induced effective cell death was 20 ng/ml for E.G7-OVA cells and 200 ng/ml for MOC2 and 4T1 cells and cell viability was approximately 80% for all cell types (FIGS. 2 and 3). The immunogenicity of the cell death was verified based on an increase in DAMPs after verteporfin treatment. […] Tumor cells were cultured in a serum-free medium for 24 hours with or without verteporfin to prepare AI-TEV or control TEV (C-TEV), respectively. […] TEVs expressed several EV markers such as tumor susceptibility genes 101 (TSG101), CD81, and Alix, but had no negative marker calnexin (FIGS. 12 and 13). Since verteporfin inhibited both autophagy and YAP, it was expected that there was a significant difference in a proteomic cargo between C-TEV and AI-TEV.

E.G7-OVA cells = test: Cell viability assay (CCK-8) with verteporfin; assay type: cell-based, mouse; details: 24 hours
Experimental: as §1, §2

MOC2 cells = test: Cell viability assay (CCK-8) with verteporfin; assay type: cell-based, mouse; details: 24 hours
Experimental: as §1, §2

cancer cells = test: Immunogenic cell death markers: calreticulin flow cytometry, HSP70/HMGB1 release Western blotting; assay type: cell-based, mouse
Experimental: (§3) Protein concentrations of the samples were quantified using a DCTM protein assay kit (5000111, Bio-Rad, Hercules, CA, USA). The samples were dissolved using radioimmunoprecipitation buffer (9806S; Cell Signaling Technology, Danvers, MA, USA) and subjected to SDS-PAGE. The samples were loaded onto a sodium dodecyl sulfate polyacrylamide gel, separated by gel electrophoresis, and transferred to a nitrocellulose membrane. The membrane was blocked with 5% skim milk and incubated overnight at 4° C. with primary antibodies against the following: Tsg101 (sc-22774; Santa Cruz, Dallas, TX, USA), YAP (sc99010), CD81 (sc-166029), ALIX (sc-53540), calnexin (ab22595; Abcam, Cambridge, United Kingdom), OVA (0220-1682; Bio-Rad), HMGB1 (ab18256; Abcam), HSP70 (ab181606; Abcam), or B-actin (4967S; Cell Signaling Technology). After washing five times (5 min each) with Tris-buffered saline containing 0.05% Tween-20 (TBS/T), the membrane was incubated with anti-mouse peroxidase (1:3000; A4416; Sigma-Aldrich) or anti-rabbit peroxidase (1:3000; A0545) secondary antibody at 20 to 25° C. for 1 hour. The membrane was then incubated with an ECL substrate (1705061, Bio-Rad) and visualized using a ChemiDoc™ Touch Imaging System (Bio-Rad).
Cells were seeded in a 6-well plate (30006; SPL Life Sciences, 5×10^5 cells/well) and treated with verteporfin in a serum-free medium for 3 hours. The cells were fixed with 0.25% paraformaldehyde for 5 minutes at 4° C. and then blocked with 3% bovine serum albumin for 15 minutes at 4° C. A calreticulin antibody (ab2907; Abcam) was added to the samples and incubated at 4° C. for 45 minutes. […] Calreticulin expression on the cell membrane was evaluated using flow cytometry gating of PI-negative cells.
To determine appropriate conditions for AI-TEV production, three types of cancer cells were treated with various doses of verteporfin in a serum-free medium and cell viability was assessed. […]

YAP = molecular target: T1, YAP (Mus musculus, UniProt P46938); test: Western blotting of YAP after verteporfin treatment; assay type: cell-based; details: verteporfin 24 hours
T1 construct: endogenous in cells; host or cells: E.G7-OVA, MOC2 and 4T1 mouse cancer cells
Experimental: as §3
In addition, the migration ability of TEV-stimulated tumor cells was evaluated using a transwell migration assay. […] E.G7-OVA cells were also evaluated using the same protocol, but due to non-adherent characteristics, invasive cells were counted in the lower wells of a transwell chamber rather than on a membrane (FIGS. 18 and 19). […] Due to the aggressive and metastatic characteristics of 4T1 cells, a matrigel coating was added to the transwell membrane for the invasion assay. […] Finally, to confirm the attenuation of the tumor-promoting properties of AI-TEV in vivo, the efficacy as a therapeutic vaccine was evaluated in a mouse model. The therapeutic vaccine was another well-studied form of tumor vaccine designed to suppress tumor growth and induce long-term antitumor memory.

[1] = conditioned medium, 24 hours after verteporfin treatment

T1 sequence (P46938 whole entry): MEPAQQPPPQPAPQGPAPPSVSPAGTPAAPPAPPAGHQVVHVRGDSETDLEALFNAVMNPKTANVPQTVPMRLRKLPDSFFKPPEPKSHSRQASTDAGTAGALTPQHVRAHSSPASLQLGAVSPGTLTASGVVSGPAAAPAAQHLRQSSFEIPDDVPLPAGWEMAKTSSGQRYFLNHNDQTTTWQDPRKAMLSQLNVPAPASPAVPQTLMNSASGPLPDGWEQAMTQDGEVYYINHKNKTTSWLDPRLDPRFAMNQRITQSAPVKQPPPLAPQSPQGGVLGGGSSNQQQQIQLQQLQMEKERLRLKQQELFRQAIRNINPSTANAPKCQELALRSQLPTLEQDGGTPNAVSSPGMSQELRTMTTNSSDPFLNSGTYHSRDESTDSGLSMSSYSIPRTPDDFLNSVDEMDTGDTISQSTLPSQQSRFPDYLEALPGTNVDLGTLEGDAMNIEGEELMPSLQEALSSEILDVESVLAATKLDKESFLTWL

YAP protein (YAP; 4T1 cells): YAP inhibition | YAP protein content (YAP; E.G7-OVA cells): decreased | YAP protein content (YAP; MOC2 cells): decreased
Substance: Verteporfin
cell viability (4T1 cells; 200 ng/ml verteporfin): approximately 80% | lowest dose of verteporfin that induced effective cell death (4T1 cells; serum-free medium): 200 ng/mL | cell viability (E.G7-OVA cells; 20 ng/ml verteporfin): approximately 80% | lowest dose of verteporfin that induced effective cell death (E.G7-OVA cells; serum-free medium): 20 ng/mL | cell viability (MOC2 cells; 200 ng/ml verteporfin): approximately 80% | lowest dose of verteporfin that induced effective cell death (MOC2 cells; serum-free medium): 200 ng/mL | calreticulin expression (cancer cells; cancer cells after verteporfin treatment, cell surface): dose-dependent increase | release of heat shock protein 70 (HSP70) (cancer cells; [1]): dose-dependent increase | release of high mobility group box 1 (HMGB1) (cancer cells; [1]): dose-dependent increase
